Source: patent publication US20140348749A1, “IDENTIFICATION AND TREATMENT OF TUMORS SENSITIVE TO GLUCOSE LIMITATION” (Whitehead Institute for Biomedical Research, priority 2013, published 2014)
“Also recorded” adds a separate entry of the source. Read-outs that look alike come from different tables or passages of the source.

Key:
[1] = test system: glucose limitation sensitive or resistant cell lines
Method: (§1) 250,000 cells then were attached to the plate by centrifugation at 2200 rpm without brakes for 5 min. For adherent cells, 40,000 to 80,000 cells were plated the night before the experiments. […] For spare respiratory capacity measurements, increasing FCCP concentrations (0.1, 0.5 and 2 uM) were used in order to assess maximum OCR of each cell line. For basal oxygen consumption measurements, cell number or protein concentration was used for normalization.
Metabolic responses of cell lines to mitochondrial uncoupling were analyzed by treating cells from a number of glucose limitation sensitive or resistant cell lines with the mitochondrial uncoupling agent FCCP and measuring OCR.

[2] = test system: panel of 8 cell lines with varying expression of CYC1 and UQCRC1; test: Metformin sensitivity versus CYC1 and UQCRC1 expression in a panel of 8 cell lines; type: cell-based; conditions: 1 mM glucose as low glucose condition
Method: We tested the hypothesis that expression of CYC1 and UQCRC1 could predict sensitivity to metformin under conditions in which glucose is limiting. […] 1 mM glucose was used as a low glucose condition in this experiment.

[3] = test system: glucose limitation sensitive and glucose limitation resistant tumor cell lines; test: Proliferation of tumor cell lines exposed to metformin under low glucose; type: cell-based
Method: We tested the sensitivity of a panel of glucose limitation sensitive and glucose limitation resistant tumor cell lines to treatment with metformin, a compound that inhibits OXPHOS at least in part by inhibiting complex 1. Cells were exposed to 2 mM metformin for 3 days.

[4] = test system: tumors from glucose limitation sensitive cell line NCI-H929; test: Metformin treatment of mice with established tumors; type: in vivo; conditions: metformin 400 mg/kg, close to 3 weeks
Method: (§2) In vivo data was obtained initially using one cell line that is resistant to glucose limitation (NCI-H82) and one cell line that is sensitive to glucose limitation (NCI-H929). Mice harboring established tumors derived from these cell lines were treated with metformin (400 mg/kg) or vehicle (PBS) for close to 3 weeks and tumor size was measured. The tumor sizes were averaged for all tumors in that particular group at the end. […] Tumors from the sensitive line are on average half the size in mice treated with metformin than in mice treated with vehicle.

[5] = test system: tumors from glucose limitation resistant cell line NCI-H82; test: as above; type: in vivo; conditions: metformin 400 mg/kg, close to 3 weeks
Method: as §2

[6] = among tetracycline-class antibiotics; cited from earlier work
[7] = test system: xenografts of mtDNA mutant cells expressing NDI1; test: Phenformin in drinking water, xenografts of NDI1-expressing cells; type: in vivo, mice
Method: (§3) Further in vivo experiments were conducted using additional tumor cell lines. Xenografts were initiated with 2-5 million cells per injection site implanted subcutaneously into the right and left flanks of 5-8 week old male NOD.CB 17 Scid/J mice (Jackson Labs). Once tumours were palpable in all animals (>50 mm^3 volume by caliper measurements), mice were assigned randomly into biguanide treated or untreated groups and caliper measurements were taken every 3-4 days until tumour burden approached the limits set by institutional guidelines. Tumour volume was assessed according to the formula ½*W*W*L or 4/3*3.14*W/2*L/2*D/2 for large tumors. […] All experiments involving mice were carried out with approval from the Committee for Animal Care at MIT and under supervision of the Department of Comparative Medicine at MIT.

[8] = test system: cells with mutations in Complex I; test: Oxygen consumption rate (OCR) with phenformin, control or NDI1-expressing lines; type: cell-based
Method: as §1

[9] = test system: cell lines with mtDNA-encoded Complex I mutations or impaired glucose utilization
143B Rho cells = test: Proliferation of cells lacking mtDNA with phenformin; conditions: 0.75 mM or 10 mM glucose
Cal-62 cells = test: Long term culture of mtDNA mutant cells in phenformin; type: cell-based; conditions: Cal-62, 1.5 months, 5-20 uM phenformin
Method: Cells were split 1:10 when nearing confluence. […] The ratio of wild type to mutant mtDNA was calculated by summing the 11 Sanger Sequencing peak height measurements per nucleotide position for the wild type and mutant allele allowing for the percent mutant calculated. These values were averaged over three nucleotide positions for which the base in the wild type and mutant sequence differs.

U-937 xenografts = test: Phenformin in drinking water, tumour xenografts; type: in vivo, mice; conditions: U-937 (mtDNA mutations); phenformin 1.7 mg/ml in drinking water
Method: as §3

BxPC3 xenografts = test: Phenformin in drinking water, tumour xenografts; type: in vivo, mice; conditions: BxPC3 (mtDNA mutations); phenformin 1.7 mg/ml in drinking water
Method: as §3

Cal-62 xenografts = test: Phenformin in drinking water, tumour xenografts; type: in vivo, mice; conditions: Cal-62 (mtDNA mutations); phenformin 1.7 mg/ml in drinking water
Method: as §3

KMS-26 xenografts = test: Phenformin in drinking water, tumour xenografts; type: in vivo, mice
Method: as §3

NCI-H929 xenografts = test: Phenformin in drinking water, tumour xenografts; type: in vivo, mice; conditions: NCI-H929 (poor glucose consumption); phenformin 1.7 mg/ml in drinking water
Method: as §3

N#CC(C#N)=NNc1ccc(OC(F)(F)F)cc1 [FCCP, Carbonyl cyanide 4-(trifluoromethoxy)phenylhydrazone]
increase in OCR upon FCCP ([1]; glucose limitation resistant cell lines): much greater increase in OCR | increase in OCR upon FCCP ([1]; glucose limitation sensitive cells): only a modest increase

CN(C)C(=N)NC(=N)N [metformin, N,N-dimethylimidodicarbonimidic diamide]
relation of UQCRC1+CYC1 expression to metformin sensitivity [2]: correlated with sensitivity to metformin; also recorded: increased sensitivity | sensitivity to metformin (proliferation) of glucose limitation sensitive versus resistant cell lines ([3]; 2 mM metformin, 3 days, 0.75 mM glucose): markedly more sensitive; also recorded: greater inhibitory effects on proliferation | sensitivity of U937 cells to metformin ([3]; U937 cell line): sensitive | cleaved caspase 3 in tumors compared with vehicle [4]: increase in cleaved caspase 3; also recorded: increased level of cleaved caspase 3 | reduction in size of tumors compared with vehicle (PBS) [4]: approximately 50% | tumor size in metformin treated versus vehicle treated mice [4]: half the size | cleaved caspase 3 in tumors compared with vehicle [5]: not observed | effect on size of tumors compared with vehicle (PBS) [5]: did not affect size of tumors

CN(C)c1ccc(O)c2c1C[C@H]1C[C@H]3[C@H](N(C)C)C(O)=C(C(N)=O)C(=O)[C@@]3(O)C(O)=C1C2=O [minocycline, (2E,4S,4aR,5aS,12aR)-2-(amino-hydroxy-methylidene)-4,7-bis(dimethylamino)-10,11,12a-trihydroxy-4a,5,5a,6-tetrahydro-4H-tetracene-1,3,12-trione]
penetration into organs [6]: greatest penetration into certain organs such as the prostate and brain

N=C(N)NC(=N)NCCc1ccccc1 [phenformin, 2-(N-phenethylcarbamimidoyl)guanidine]
effects of phenformin on xenograft growth after introduction of NDI1 [7]: rescued | effect of NDI1 expression on the effects of phenformin on oxygen consumption [8]: almost completely rescued the effects of phenformin | phenformin sensitivity at intermediate glucose ([9]; 1.5-3.0 mM glucose): substantial sensitivity persisted | sensitivity of BxPC3 cells to phenformin ([9]; BxPC3 pancreatic cancer cell line): sensitive | effect of GLUT3 over-expression on phenformin sensitivity ([9]; cells with impaired glucose utilization, 0.75 mM glucose): almost completely rescued the phenformin sensitivity | effect of NDI1 expression on the effects of phenformin on proliferation ([9]; cells with mutations in Complex I, 0.75 mM glucose): almost completely rescued the effects of phenformin | phenformin sensitivity in 0.75 versus 10 mM glucose ([9]; low glucose sensitive cell lines, particularly those with impaired glucose utilization): more sensitive to phenformin in 0.75 than 10 mM glucose | sensitivity of cells lacking mtDNA to phenformin (143B Rho cells): insensitive to phenformin | sensitivity to low glucose after culture in phenformin (Cal-62 cells): decrease in sensitivity to low glucose | wild-type mtDNA content after culture in phenformin (Cal-62 cells): significantly enriched wild-type mtDNA content | growth of tumour xenografts (U-937 xenografts): inhibited the growth | growth of tumour xenografts (BxPC3 xenografts): inhibited the growth | growth of tumour xenografts (Cal-62 xenografts): inhibited the growth | growth of tumour xenografts (KMS-26 xenografts; KMS-26 (poor glucose consumption), phenformin 1.7 mg/ml in drinking water): inhibited the growth | effects of phenformin on xenograft growth after over-expression of GLUT3 (KMS-26 xenografts; KMS-26 cells over-expressing GLUT3): rescued | growth of tumour xenografts (NCI-H929 xenografts): inhibited the growth
